Results published in PubChem BioAssay AID2060348 (Molecular Pharmacology Branch, DTP, NCI, 2025).

Tested on: 885724-159-R-J1-PDC spheroids viability
Test: Anticancer human tumor 885724-159-R-J1-PDC patient-derived pancreatic adenocarcinoma cell line growth inhibition [TAK]
Conditions: spheroids with HUVEC and MSC; for IC50: curve of first compound; for viability, T/C: stronger effect = lower value
Method in brief: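 Drug combinations, each paired with TAK-243 or ipatasertib, were tested on multi-cell spheroids of 60% malignant cells, 25% HUVEC and 15% hMSC. Top concentrations were at or near the clinical Cmax (10 microM if undetermined), decreasing by half-log; viability is given as % test/control.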

[1] = second compound 0.3 µM, first compound 0.0316 µM
[2] = second compound 0.3 µM, first compound 0.1 µM
[3] = second compound 0.3 µM, first compound 0.316 µM
[4] = second compound 0.3 µM, first compound 1 µM
[5] = second compound 0.949 µM, first compound 0.0316 µM
[6] = second compound 0.949 µM, first compound 0.1 µM
[7] = second compound 0.949 µM, first compound 0.316 µM
[8] = second compound 0.949 µM, first compound 1 µM
[9] = second compound 3 µM, first compound 0.0316 µM
[10] = second compound 3 µM, first compound 0.1 µM
[11] = second compound 3 µM, first compound 0.316 µM
[12] = second compound 3 µM, first compound 1 µM
[13] = second compound 9.49 µM, first compound 0.0316 µM
[14] = second compound 9.49 µM, first compound 0.1 µM
[15] = second compound 9.49 µM, first compound 0.316 µM
[16] = second compound 9.49 µM, first compound 1 µM
[17] = second compound 30 µM, first compound 0.0316 µM
[18] = second compound 30 µM, first compound 0.1 µM
[19] = second compound 30 µM, first compound 0.316 µM
[20] = second compound 30 µM, first compound 1 µM
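Note: spheroids exposed to drugs for seven days.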
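Throughout, for viability, T/C: 100% = DMSO vehicle control viability.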

| Compound | IC50 (second compound 0.3 µM) [nM] | IC50 (second compound 0.949 µM) [nM] | IC50 (second compound 3 µM) [nM] | IC50 (second compound 9.49 µM) [nM] | IC50 (second compound 30 µM) [nM] | viability, T/C [1] [%] | viability, T/C [2] [%] | viability, T/C [3] [%] | viability, T/C [4] [%] | viability, T/C [5] [%] | viability, T/C [6] [%] | viability, T/C [7] [%] | viability, T/C [8] [%] | viability, T/C [9] [%] | viability, T/C [10] [%] | viability, T/C [11] [%] | viability, T/C [12] [%] | viability, T/C [13] [%] | viability, T/C [14] [%] | viability, T/C [15] [%] | other results |
| --- | --- | --- | --- | --- | --- | --- | --- | --- | --- | --- | --- | --- | --- | --- | --- | --- | --- | --- | --- | --- | --- |
| COc1c(OCCCN2CCOCC2)ccc2c3n(c(=NC(=O)c4cnc(N)nc4)nc12)CCN3 + CC(C)NCC(C(=O)N1CCN(c2ncnc3c2C(C)CC3O)CC1)c1ccc(Cl)cc1 | 4.05 | < 3.16 | < 3.16 | < 3.16 | < 3.16 | 27.3 | 19.4 | 13.4 | 12.3 | 20.3 | 14.8 | 12.1 | 10.8 | 16 | 13.7 | 11.6 | 11.2 | 13.8 | 11.3 | 9.95 | viability, T/C (second compound 0.3 µM, first compound 0.00316 µM): 52.4%; viability, T/C (second compound 0.3 µM, first compound 0.01 µM): 41.2%; viability, T/C (second compound 0.949 µM, first compound 0.00316 µM): 32.9%; viability, T/C (second compound 0.949 µM, first compound 0.01 µM): 27.1%; viability, T/C (second compound 3 µM, first compound 0.00316 µM): 26.9%; viability, T/C (second compound 3 µM, first compound 0.01 µM): 20.4%; viability, T/C (second compound 9.49 µM, first compound 0.00316 µM): 22.8%; viability, T/C (second compound 9.49 µM, first compound 0.01 µM): 18.9%; viability, T/C [16]: 10.2%; viability, T/C (second compound 30 µM, first compound 0.00316 µM): 18%; viability, T/C (second compound 30 µM, first compound 0.01 µM): 12.7%; viability, T/C [17]: 9.8%; viability, T/C [18]: 9.29%; viability, T/C [19]: 6.93%; viability, T/C [20]: 6.96% |
| Cc1nc(NC(=O)N2CCCC2C(N)=O)sc1-c1ccnc(C(C)(C)C(F)(F)F)c1 (stereo not given) + CC(C)NCC(C(=O)N1CCN(c2ncnc3c2C(C)CC3O)CC1)c1ccc(Cl)cc1 | 154 | < 31.6 | < 31.6 | < 31.6 | < 31.6 | 60.9 | 46.4 | 47.6 | 41.5 | 47.9 | 44.2 | 35.9 | 27.8 | 44.5 | 43.5 | 28.9 | 21.3 | 40 | 35.2 | 26.9 | viability, T/C (second compound 0.3 µM, first compound 3.16 µM): 27.5%; viability, T/C (second compound 0.3 µM, first compound 10 µM): 19.4%; viability, T/C (second compound 0.949 µM, first compound 3.16 µM): 20.8%; viability, T/C (second compound 0.949 µM, first compound 10 µM): 14.3%; viability, T/C (second compound 3 µM, first compound 3.16 µM): 19%; viability, T/C (second compound 3 µM, first compound 10 µM): 12.7%; viability, T/C [16]: 19.4%; viability, T/C (second compound 9.49 µM, first compound 3.16 µM): 14.3%; viability, T/C (second compound 9.49 µM, first compound 10 µM): 9.85%; viability, T/C [17]: 28.8%; viability, T/C [18]: 26.4%; viability, T/C [19]: 19.6%; viability, T/C [20]: 14.3%; viability, T/C (second compound 30 µM, first compound 3.16 µM): 10.7%; viability, T/C (second compound 30 µM, first compound 10 µM): 6.4% |
